From PMC5572722, “Dimerization in tailoring uptake efficacy of the HSV-1 derived membranotropic peptide gH625” (Scientific Reports, 2017)
Positions of bridges follow the written chain, without caps; N, C: chain ends. Residues, ends and D or L forms follow the SMILES beside them. Chains are numbered I, II in the order given. No end group written: not given here.

Assay: Circular dichroism: helix content and θ222/θ208 ratio
Type: physicochemical
Conditions: CD, peptide 8 μM; for helix content in 20% TFE: room temperature, from MRE at 222 nm; for helix content in 20% TFE / ratio θ222/θ208 in TFE: 20% TFE; for ratio θ222/θ208 in TFE / ratio θ222/θ208 in lipids / ratio θ222/θ208 in buffer: <0.8 monomeric, >1.0 oligomeric state; for helix content in DOPG/Chol / ratio θ222/θ208 in lipids: DOPG/Chol 60/40 LUVs; for helix content in DOPG/Chol: P/L 0.05, from MRE at 222 nm; for ratio θ222/θ208 in lipids: P/L 0.05; for helix content in buffer: sodium phosphate 5 mM pH 7.4, room temperature, from MRE at 222 nm (Chakrabartty et al.)
From the text: The circular dichroism (CD) analysis was used to reveal changes of the secondary structure with respect to the parent peptide in different experimental conditions (Figure 7). […] The helix content is probably underscored because oligomerization processes are taking place in this condition. The CD spectra were also obtained in presence of DOPG/Chol.
Figure 7 Circular dichroism spectra of gH625, gH625-H7 and gH625-G7 in buffer (A), 20% TFE (B) and DOPG/Chol 60/40 (mol/mol) LUVs (C). Peptide concentration used is 8 μM in all conditions tested and the peptide/lipid ratio is 0.05 in condition C.
The ratio of the ellipticities at 222 and 208 nm can be utilized to distinguish between monomeric and oligomeric states of helices, [49]; when the ratio θ222/θ208 is lower than 0.8, the peptide is essentially in its monomeric state, and when the ratio exceeds the value of 1.0, it is in its oligomeric state. The data reveal that in presence of TFE and of lipids, gH625 adopts an α-helical conformation with the monomer/oligomer equilibrium shifted toward the oligomeric state with a ratio θ222/θ208 of approximately 0.9 in both conditions, while in buffer the ratio decreases to 0.5 indicating a monomeric state. […] (Figure 7B,C). We repeated the experiment after centrifugation to remove eventual precipitated peptides from solution, however, the aggregates were molecular in size, and centrifugation had no effect on the spectra. The same analysis were performed on gH625-H7. The peptide adopts an α-helical conformation also in buffer, with a ratio θ222/θ208 of approximately 0.7, 0.9 and 1.2 in buffer, TFE and lipids.
CD spectra were recorded in a 1.0 or 0.1 cm quartz cell at room temperature using a Jasco J-715 spectropolarimeter. The spectra are an average of 3 consecutive scans from 260 to 195 nm, recorded with a band width of 3 nm, a time constant of 16 s, and a scan rate of 10 nm/min. Spectra were recorded and corrected for the background contributions by substracting blank samples. Mean residue ellipticities (MRE) were calculated using the expression MRE = Obsd/(lcn), where Obsd is the ellipticity measured in millidegrees, l is the path length of the cell in cm, c is the peptide concentration in mol/l, and n is the number of amino acid residues in the peptide. The peptide concentration was 8 μM both in buffer (sodium phosphate 5 mM pH 7.4) and at different percentages of TFE. Peptide samples in DOPG/Chol (60/40 mol/mol) were prepared using the following protocol[32]: all peptides were first dissolved in TFE; immediately after preparation, the peptide solution was added to an equal volume of a chloroform/methanol solution containing the appropriate lipid concentration; solutions were dried with a nitrogen gas stream and lyophilized overnight; the dry samples were rehydrated with buffer to yield a final peptide concentration of 8 μM with a P/L ratio of 0.05 and extruded. The percentage of helix was calculated from measurements of their mean residue ellipticity at 222 nm[47]. We used [ϑ]222 values of 0 and −40.000(1–2.5/n) deg cm^2 dmol^−1 per amino acid residue for 0% and 100% helicity; n is the number of amino acid residues.

Compound	helix content in 20% TFE	ratio θ222/θ208 in TFE	helix content in DOPG/Chol	ratio θ222/θ208 in lipids	helix content in buffer	ratio θ222/θ208 in buffer
CC[C@H](C)[C@H](NC(=O)[C@H](CC(C)C)NC(=O)[C@H](C)NC(=O)[C@H](CC(N)=O)NC(=O)[C@H](Cc1ccc(O)cc1)NC(=O)[C@H](Cc1c[nH]cn1)NC(=O)[C@H](C)NC(=O)[C@H](Cc1c[nH]c2ccccc12)NC(=O)[C@H](CCCNC(=N)N)NC(=O)[C@@H](NC(=O)[C@H](CC(C)C)NC(=O)[C@@H](NC(=O)[C@H](CO)NC(=O)[C@H](C)NC(=O)[C@H](CC(C)C)NC(=O)CNC(=O)[C@@H](N)Cc1c[nH]cn1)[C@@H](C)O)[C@@H](C)O)C(=O)N[C@@H](CCCNC(=N)N)C(=O)N[C@@H](C)C(=O)N[C@@H](Cc1ccccc1)C(=O)NCC(=O)NCC(=O)NCC(=O)N[C@@H](CCCCN)C(=O)N[C@@H](CCCCN)C(=O)N[C@@H](CCCCN)C(=O)N[C@@H](CCCCN)C(N)=O [gH625-G7] (H-HGLASTLTRWAHYNALIRAFGGGKKKK-NH2)	36%	0.7	55%	1.0	7%	
I: HGLASTLTRWAHYNALIRAFGCGKKKK-NH2 / II: HGLASTLTRWAHYNALIRAFGCGKKKK-NH2 (disulfide I:22-II:22) [gH625-H7]	approximately 20%	approximately 0.9		~1.2	8%	approximately 0.7
CC[C@H](C)[C@H](NC(=O)[C@H](CC(C)C)NC(=O)[C@H](C)NC(=O)[C@H](CC(N)=O)NC(=O)[C@H](Cc1ccc(O)cc1)NC(=O)[C@H](Cc1c[nH]cn1)NC(=O)[C@H](C)NC(=O)[C@H](Cc1c[nH]c2ccccc12)NC(=O)[C@H](CCCNC(=N)N)NC(=O)[C@@H](NC(=O)[C@H](CC(C)C)NC(=O)[C@@H](NC(=O)[C@H](CO)NC(=O)[C@H](C)NC(=O)[C@H](CC(C)C)NC(=O)CNC(=O)[C@@H](N)Cc1c[nH]cn1)[C@@H](C)O)[C@@H](C)O)C(=O)N[C@@H](CCCNC(=N)N)C(=O)N[C@@H](C)C(=O)N[C@@H](Cc1ccccc1)C(N)=O [gH625] (H-HGLASTLTRWAHYNALIRAF-NH2)	22%	approximately 0.9	37%	approximately 0.9	5%	0.5
